Assay results published in patent US20140080810A1 (Exelixis, Inc., priority 2010, published 2014).

Assays:
PTEN-negative tumors [1] = conditions: specific inhibition of PI3Kβ; cited from earlier work
PTEN-negative tumors [2] = conditions: specific inhibition of PI3Kβ; cited from earlier work; remark: listed apart in the source
[3] = system: pAKT (T308) in MCF-7 cells (PI3Kα E545K); assay: pAKT (T308) ELISA Assay; assay type: cell-based; conditions: Homo sapiens, MCF7; IGF1 stimulation; read-out: pAKT (T308) IC50 MCF-7 PI3Kα E545K IGF1
Protocol: MCF-7 cells (ATCC) cells were seeded at 24000 cells per well in 96-well plates (Corning, 3904) in DMEM (Cellgro) containing 10% FBS (Cellgro), 1% NEAA (Cellgro) and 1% penicillin-streptomycin (Cellgro). Cells were incubated at 37° C., 5% CO2 for 48 h, and the growth medium was replaced with serum-free DMEM or in medium containing 0.4% BSA. Serial dilutions of the test Compound in 0.3% DMSO (vehicle) were added to the cells and incubated for 3 h. At the end of the incubation period, cells were stimulated for 10 minutes by the addition of L-IGF (Sigma, I-1271) at a final concentration of 100 ng/ml. Afterwards, media was discarded from cell plates and 110 μl/well of cold lysis buffer (see table below) were added. Cell plates were incubated on ice and then put on shaker in 4° C. cold room for 1 h. Two capture plates (Thermo Scientific, Reacti-bind plate, 15042) were prepared for each cell plate by pre-coating with capture Akt antibody from the two sandwich ELISA antibody pairs used (Cell Signaling Technology 7142 and 7144). The Akt capture antibodies were diluted 1:100 in PBS and 100 μl of diluted capture antibody was added per well. Capture plates were incubated at 4 C overnight. Prior to use, capture plates were washed 3 times in TBS containing 0.1% Tween20 (Bio-Rad, 170-6351) (TBST) and blocked in blocking buffer (Thermo Scientific, Starting Block T20, 37543) for 1-2 h at room temperature. After 1 h of cell lysis, 85 μl of cell lysate/well was transferred to the capture plate for detection of pAkt(T308). 15 μl of cell lysate was transferred from same well to the second capture plate for detection of total Akt1. After incubation overnight at 4° C., plates were washed 3 times with 200 μL TBST. Primary antibodies, diluted 1:100 in blocking buffer, were added to the corresponding capture plates for pAkt(T308) (Cell Signaling Technology, 7144) and total Akt1 (Cell Signaling Technology, 7142) detection and incubated at room temperature for 1 h. Plates were washed 3 times with 200 μL of TBST. Goat anti-mouse secondary antibody (Cell Signaling Technology, 7076) conjugated to HRP was diluted 1:1000 in blocking buffer and 100 μl were added to each well and incubated for 30 minutes at room temperature. Plates were then washed 3 times with 200 μL of TBST. 100 μL of SuperSignal ELISA Femto stable peroxidase solution (Thermo Scientific, 37075) was added to each well. After 1 minute incubation, chemiluminescence was read on a Wallac Victor2 1420 multilabel counter. IC50 values were determined based on the ratio of pAkt(T308) to total Akt1 signal for Compound treated wells, normalized to the DMSO-treated control wells.
In another embodiment, the pAKT ELISA Assay was performed by seeding cells onto 96-well plates (Corning, 3904) in their respective growth media at the densities listed in Table 5. Cells were incubated at 37° C., 5% CO2 for 48 h (except MDA-MB-453 cells which were cultured in the absence of CO2). Compounds were serially diluted in DMSO and subsequently diluted in serum-free DMEM. Test compounds were added to cells in serum-free DMEM at a final concentration of 0.3% DMSO and incubated for 3 h. Cells were lysed with 130 μL of ice-cold RIPA lysis buffer (50 mM Tris-HCl, pH 7.5; 0.5% sodium deoxycholic acid; 1% Triton X-100; 0.1% SDS; 150 mM NaCl) with protease and phosphatase inhibitors (1 mM EDTA, 1 mM NaF, 20 mM β-glycerophosphate, 1 mM Na-orthovanadate, Complete-Mini EDTA-free, Roche, 11836170001, and Phosphatase Inhibitor Cocktail I, Sigma, P2850), directly in 96-well plates. Cells were lysed on ice for 60-120 min at 4° C. The supernatants were added directly to capture ELISA plates previously pre-coated with rabbit anti-AKT capture antibody. ELISA assays for pAKT(T308) and total AKT were performed with the pAKT(T308) ELISA kit (Cell Signaling Technology, 7144) and AKT1 ELISA kit (Cell Signaling Technology, 7142). For the pAKT(T308) ELISA, 85 μL of cell lysate was added to each well. […]

IC50 [3]: 1.76 µM
SMILES: Cc1cc(C(C)Nc2ccccc2)c2nc(N3CCOCC3)cc(=O)n2c1 (stereo not drawn) [TGX-221, 7-methyl-2-(4-morpholinyl)-9-[1-(phenylamino)ethyl]-4H-pyrido[1,2-a]pyrimidin-4-one]
basal AKT phosphorylation (PTEN-negative tumors [1]): blocks
cell growth (PTEN-negative tumors [2]): blocks
